Assay results as given in article PMC4631641 (The Journal of nutritional biochemistry, 2015).

Molecular target: T1, holocarboxylase synthetase (HLCS) (Homo sapiens, UniProt P50747)
T1 sequence (P50747 1-726): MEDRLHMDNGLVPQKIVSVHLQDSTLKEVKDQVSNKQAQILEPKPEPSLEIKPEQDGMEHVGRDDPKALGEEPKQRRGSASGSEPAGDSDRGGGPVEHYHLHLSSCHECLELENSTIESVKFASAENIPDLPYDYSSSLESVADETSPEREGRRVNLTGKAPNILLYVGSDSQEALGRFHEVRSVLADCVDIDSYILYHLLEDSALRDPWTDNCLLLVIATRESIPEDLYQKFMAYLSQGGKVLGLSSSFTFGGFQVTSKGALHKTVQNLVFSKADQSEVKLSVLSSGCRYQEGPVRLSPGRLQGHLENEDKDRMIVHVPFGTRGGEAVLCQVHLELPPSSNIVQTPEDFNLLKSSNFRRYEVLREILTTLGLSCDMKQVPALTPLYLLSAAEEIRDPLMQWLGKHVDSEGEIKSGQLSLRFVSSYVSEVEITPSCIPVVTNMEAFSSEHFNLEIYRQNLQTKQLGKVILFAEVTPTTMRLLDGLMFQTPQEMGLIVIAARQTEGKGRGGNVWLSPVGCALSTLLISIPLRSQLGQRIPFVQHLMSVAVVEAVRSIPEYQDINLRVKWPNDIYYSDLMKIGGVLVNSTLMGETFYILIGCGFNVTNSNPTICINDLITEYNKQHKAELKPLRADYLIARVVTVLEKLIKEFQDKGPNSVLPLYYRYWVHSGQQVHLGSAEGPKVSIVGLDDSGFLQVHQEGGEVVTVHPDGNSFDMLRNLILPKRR
Test: gel-based p67 biotinylation assay with purified rHLCS, dose-response
Type: biochemical

Row | Structure (SMILES) | IC50 [µM]
1 | Oc1cc(O)cc(/C=C/c2ccc(O)c(O)c2)c1 [Piceatannol] | 0.28
2 | OC[C@H]1O[C@@H](Oc2cc(O)cc(/C=C/c3ccc(O)cc3)c2)[C@H](O)[C@@H](O)[C@@H]1O [Piceid] | 21.3 ± 0.014
3 | Oc1ccc(/C=C/c2cc(O)cc(O)c2)cc1 [Resveratrol] | 3.7 ± 0.0085
